Measurements published in patent US12285487B2, “Liquid topical pharmaceutical nano-emulsion formulations” (JRX BIOTECHNOLOGY, INC., priority 2012, dated 2025).

What was measured:
Type in all cases: physicochemical
[1] = Particle size analysis by laser diffraction of neat API; settings: for Particle Size Mean / Particle Size Median / Particle Size Mode: dispersed in cyclohexane
Text: For particle size analysis, by laser diffraction (LD), a small sample of the dry powder was dispersed into cyclohexane with sonication and then diluted to an appropriate signal level. The optical microscope was a Zeiss Model Std 25 fitted with a 40× objective. […] The Raman spectrometer was a Horiba XploRA Raman Microscope.

[2] = Optical microscopic examination of neat API dry powder; settings: for estimates of size range by optical microscopy: 400× magnification
Text: Neat API: For optical microscopic/image analysis examination the material was used as received. A small aliquot was placed on a clean microscope slide and a clean glass coverslip placed on top.
(§1) The optical microscope was a Zeiss Model Std 25 fitted with a 40× objective. The particle size analyzers were the Horiba LA 950 (LD) and a Malvern NanoSizer 90Z (DLS). The Raman spectrometer was a Horiba XploRA Raman Microscope.

[3] = Particle size of aspirin formulation vs dry aspirin (Example 4, DLS Z-average)
Description: The particle size of aspirin (dry powder) and the aspirin diluted in the dermal and/or transdermal liquid formulation set forth in Example 1 were compared. Two studies were carried out to determine the particle size (and distribution) of samples of: (i) the formulation of Example 1, lacking only the aspirin (delivery system control), (ii) the formulation of Example 1, including the aspirin (experimental) and (iii) pure (dry) aspirin (control).

[4] = Particle size analysis by Dynamic Light Scattering (Example 8); settings: DLS intensity data
Text: as §1

size of the majority of particles [1]	Particle Size Mean [1] [μm]	Particle Size Median [1] [μm]	Particle Size Mode [1] [μm]	particle size prior to formulation [2]	size relative to aspirin in the formulation of Example 1 ([3]; dry aspirin vs formulated aspirin)	average particle size ([3]; dry aspirin, prior to formulation) [microns]	Compound	estimates of size range by optical microscopy [2]	presence of particles as large as [4] [μm]
about 30 μm	34	27	28	–	–	–	CC(C(=O)O)c1cccc(C(=O)c2ccccc2)c1 (racemic) [Ketoprofen, (RS)2-(3-benzoylphenyl)-propionic acid]	–	–
–	58	44	42	1-100 microns	–	–	CC(=O)Nc1ccc(O)cc1 [Acetaminophen, N-acetyl-para-aminophenol]	from around one or two microns (μm) to over 100 μm	–
–	78	70	72	–	–	–	CC(C)Cc1ccc(C(C)C(=O)O)cc1 (stereo not drawn) [Ibuprofen, iso-butyl-propanoic-phenolic acid]	from around 10 μm to over 100 μm	–
around 20 μm	23	23	19	–	–	–	COc1ccc2cc(C(C)C(=O)O)ccc2c1 (stereo not drawn) [Naproxen, 2-(6-methoxynaphthalen-2-yl)propanoic acid]	singlet particles of only a few microns in size and aggregates as large as 100 μm	–
–	–	–	–	–	more than 10,000 times	670	CC(=O)Oc1ccccc1C(=O)O [pure (dry) Aspirin, acetylsalicylic acid]	–	–
–	–	–	–	–	–	–	Neat Insulin: insulin supplied as an aqueous solution/suspension	–	≤ 5
